One experiment deals with T1, CCK receptor (pancreas) (Rattus norvegicus, UniProt P30551).
T1 construct: The whole pancreas was dissected free of fat tissue and was homogenized; from tissue; host or cells: whole pancreas membranes of male Sprague-Dawley rats
T1 sequence (P30551 1-444): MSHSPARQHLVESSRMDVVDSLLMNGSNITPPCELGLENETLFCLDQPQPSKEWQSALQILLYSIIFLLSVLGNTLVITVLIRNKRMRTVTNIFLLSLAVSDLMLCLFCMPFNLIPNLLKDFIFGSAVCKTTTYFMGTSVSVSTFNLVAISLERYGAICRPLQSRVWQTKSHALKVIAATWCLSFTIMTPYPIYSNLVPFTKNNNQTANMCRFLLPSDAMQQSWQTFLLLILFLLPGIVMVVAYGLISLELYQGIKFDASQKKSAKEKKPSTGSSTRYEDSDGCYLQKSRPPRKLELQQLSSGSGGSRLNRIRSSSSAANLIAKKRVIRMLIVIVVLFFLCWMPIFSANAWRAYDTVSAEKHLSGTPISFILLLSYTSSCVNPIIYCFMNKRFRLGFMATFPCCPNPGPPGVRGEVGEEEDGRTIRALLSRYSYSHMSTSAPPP
The experiment is described as follows: CCK Receptor Binding (Pancreas), inhibition of 125I-CCK-8 binding. Set-up: species or system rat (male Sprague-Dawley). As to the method: 1. CCK Receptor Binding (Pancreas)
Male Sprague-Dawley rats (150-200 g) were sacrificed by decapitation. The whole pancreas was dissected free of fat tissue and was homogenized in 25 volumes of ice-cold 10 mM Hepes buffer with 0.1% soya bean trypsin inhibitor (pH 7.4 at 25° C.) with a Kinematica Polytron. The homogenates were centrifuged at 47,800 g for 10 min. Pellets were resuspended in 10 volumes of binding assay buffer (20 mM Hepes, 1 mM EGTA, 5 mM MgCl2, 150 mM NaCl, bacitracin 0.25 mg/ml, soya bean trypsin inhibitor 0.1 mg/ml, and bovine serum albumin 2 mg/ml, pH 6.5 at 25° C.) using a teflon homogenizer, 15 strokes at 500 rpm. The homogenate was further diluted in binding assay buffer to give a final concentration of 0.5 mg original wet weight/l ml buffer. […] All assays were run in duplicate. The reaction mixtures were incubated at 25° C. for 2 hours and the reaction terminated by rapid filtration (Brandell 24 well cell harvester) over Whatman GF/C filters, washing 3×4 mls with ice-cold 100 mM NaCl. The radioactivity on the filters was counted with a LKB gamma counter.
Drug displacement studies were performed with at least 10 concentrations of compounds of formula 1 and the IC50 values were determined by regression analysis.

The target in a further experiment is T2, CCK receptor (brain) (Cavia porcellus, UniProt H0VZC5).
T2 construct: the cortex was removed and homogenized in 25 mL ice-cold 0.32M sucrose; from tissue; host or cells: cortex P2 membranes of male Hartley guinea pigs
T2 sequence (H0VZC5 1-426): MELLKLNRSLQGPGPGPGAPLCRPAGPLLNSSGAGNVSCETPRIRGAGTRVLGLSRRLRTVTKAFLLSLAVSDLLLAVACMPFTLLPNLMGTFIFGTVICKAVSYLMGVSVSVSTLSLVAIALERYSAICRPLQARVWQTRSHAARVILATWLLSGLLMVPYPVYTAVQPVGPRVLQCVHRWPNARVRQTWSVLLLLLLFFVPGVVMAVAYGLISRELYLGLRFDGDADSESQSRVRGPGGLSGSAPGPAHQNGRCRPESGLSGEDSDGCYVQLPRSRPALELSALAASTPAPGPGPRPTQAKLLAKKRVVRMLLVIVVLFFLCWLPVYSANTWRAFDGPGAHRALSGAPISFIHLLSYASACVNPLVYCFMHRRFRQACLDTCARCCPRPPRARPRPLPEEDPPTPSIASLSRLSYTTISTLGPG
The experiment is described as follows: CCK Receptor Binding (Brain), inhibition of 125I-CCK-8 binding. The arrangement: species or system guinea pig (male Hartley). The settings on record: guinea pig cortex, 50 pM 125I-CCK-8, pH 6.5, 25° C., 2 hours.

Setting [1] is: read-out: IC50 125I-CCK Pancreas, rat pancreas, 50 pM 125I-CCK-8, pH 6.5, 25° C., 2 hours.
The mark [2] stands for this setting: rat pancreas, 50 pM 125I-CCK-8, pH 6.5, 25° C., 2 hours, read-out: IC50 125I-CCK Pancreas.

pIC50: −log10 of the molar value. Read-outs that look alike come from different tables or passages of the source. Bounds are passed on as bounds.

Experimental for CCK receptor (brain): CCK-8 sulphated was radiolabelled and the binding was performed according to the description for the pancreas method with minor modifications.
Male Hartley guinea pigs (300-500g) were sacrificed by decapitation and the cortex was removed and homogenized in 25 mL ice-cold 0.32M sucrose. The homogenates were centrifuged at 1000 g for 10 minutes and the resulting supernatant was recentrifuged at 20,000 g for 20 minutes. […] All assays were run in duplicate. The reaction mixtures were incubated at 25° C. for 2 hours and then the reaction was terminated on Whatman GF/C filters by rapid filtration (Brandell 24 well cell Harvester) with 3×5 ml washes of cold 100 mM NaCl. The radioactivity on the filters was then counted with a LKB gamma counter.
Drug displacement studies were performed with at least 10 concentrations of compounds of formula 1 and the IC50 values were determined by regression analysis. IC50 refers to the concentration of the compound required to inhibit 50% of specific binding of ^125 I-CCK-8.

The pIC50 is the IC50 on a negative log10 scale, so that one unit is a factor of ten. As for `COC(=O)[C@H](Cc1cccc(NC(=O)N[C@@H]2N=C(c3ccccc3)c3ccccc3N(C)C2=O)c1)NC(=O)OC(C)(C)C` [Example 1, N-{(3R)-1,3-Dihydro-1-methyl-2-oxo-5-phenyl-1H-1,4-benzodiazepin-3-yl}-N'-{[3-((2S)-tertbutyloxycarbonylamino-2-methoxycarbonyl)ethylphenyl]urea}], the negative-log IC50 (pIC50) on CCK receptor (pancreas) is less than 5.52; at CCK receptor (brain), 7.53.
As for `COC(=O)[C@@H](N)Cc1cccc(NC(=O)N[C@@H]2N=C(c3ccccc3)c3ccccc3N(C)C2=O)c1` [Example 2, N-{(3R)-1,3-Dihydro-1-methyl-2-oxo-5-phenyl-1H-1,4-benzodiazepin-3-yl}-N'-{[3-((2S)-amino-2-methoxycarbonyl)ethylphenyl]-urea}], the negative logarithm of the IC50 (pIC50) is less than 5.52 on CCK receptor (pancreas) and 6.94 on CCK receptor (brain).
For `CN1C(=O)[C@H](NC(=O)Nc2cccc(C[C@H](N)C(=O)O)c2)N=C(c2ccccc2)c2ccccc21` [Example 3, N-{(3R)-1,3-Dihydro-1-methyl-2-oxo-5-phenyl-1H-1,4-benzodiazepin-3-yl}-N'-{[3-((2S)-amino-2-carboxy)ethylphenyl]-urea}], the negative logarithm of the IC50 (pIC50) at CCK receptor (pancreas) (setting [1]) was less than 5.52; on CCK receptor (brain) it was 7.21.
As for `COC(=O)[C@H](Cc1cccc(NC(=O)N[C@@H]2N=C(C3CCCCC3)c3ccccc3N(C)C2=O)c1)NC(=O)OC(C)(C)C` [Example 4, N-{(3R)-1,3-Dihydro-1-methyl-2-oxo-5-cyclohexyl-1H-1,4-benzodiazepin-3-yl}-N'-{[3-((2S)-tert-butyloxycarbonylamino-2-methoxycarbonyl)ethylphenyl]-urea}], the negative logarithm of the IC50 (pIC50) on CCK receptor (pancreas) (setting [2]) was 6.02; at CCK receptor (brain), 8.41.
As to `COC(=O)[C@@H](N)Cc1cccc(NC(=O)N[C@@H]2N=C(C3CCCCC3)c3ccccc3N(C)C2=O)c1` [Example 5, N-{(3R)-1,3-Dihydro-1-methyl-2-oxo-5-cyclohexyl-1H-1,4-benzodiazepin-3-yl}-N'-{[3-((2S)-amino-2-methoxycarbonyl)ethylphenyl]-urea}], the negative logarithm of the IC50 (pIC50) at CCK receptor (pancreas) (setting [2]) was 6.03; at CCK receptor (brain), 8.04.
The matching figures for `CN1C(=O)[C@H](NC(=O)Nc2cccc(C[C@H](N)C(=O)O)c2)N=C(C2CCCCC2)c2ccccc21` [Example 6, N-{(3R)-1,3-Dihydro-1-methyl-2-oxo-5-cyclohexyl-1H-1,4-benzodiazepin-3-yl}-N'-{[3-((2S )amino-2-carboxy)ethylphenyl]-urea}]: 5.75 and 8.96.
For the compound `COC(=O)[C@@H](NC(=O)OC(C)(C)C)c1cccc(NC(=O)N[C@@H]2N=C(c3ccccc3)c3ccccc3N(C)C2=O)c1` [Example 7, N-{(3R)-1,3-Dihydro-1-methyl-2-oxo-5-phenyl-1H-1,4-benzodiazepin-3-yl}-N'-{[3-((1S)-tert-butyloxycarbonylamino-1-methoxycarbonyl)methylphenyl]-urea}], the figures for the negative logarithm of the IC50 (pIC50) at CCK receptor (pancreas) and on CCK receptor (brain) were less than 5.52 and 5.70, respectively.
Take `COC(=O)[C@@H](N)c1cccc(NC(=O)N[C@@H]2N=C(c3ccccc3)c3ccccc3N(C)C2=O)c1` [Example 8, N-{(3R)-1,3-Dihydro-1-methyl-2-oxo-5-phenyl-1H-1,4-benzodiazepin-3-yl}-N'-{[3-((1S )-amino-1-methoxycarbonyl)methylphenyl]-urea}]: the negative-log IC50 (pIC50) on CCK receptor (pancreas) was less than 5.52; at CCK receptor (brain), 6.02.
In the case of `CN1C(=O)[C@H](NC(=O)Nc2cccc([C@H](N)C(=O)O)c2)N=C(c2ccccc2)c2ccccc21` [Example 9, N-{(3R)-1,3-Dihydro-1-methyl-2-oxo-5-phenyl-1H-1,4-benzodiazepin-3-yl}-N'-{[3-((1S)-amino-1-carboxy)methylphenyl]-urea}], the figures for the pIC50 on CCK receptor (pancreas) and on CCK receptor (brain) were less than 5.52 and 5.88, respectively.
Take `CN1C(=O)[C@H](NC(=O)Nc2cccc([C@@H](N)C(=O)O)c2)N=C(c2ccccc2)c2ccccc21` [Example 10, N-{(3R)-1,3-Dihydro-1-methyl-2-oxo-5-phenyl-1H-1,4-benzodiazepin-3-yl}-N'-{[3-((1R)-amino-1-carboxy)methylphenyl]-urea}]: the values for the pIC50 on CCK receptor (pancreas) and at CCK receptor (brain) were less than 5.52 and 5.44, respectively.
As for `COC(=O)CC(NC(=O)OC(C)(C)C)c1cccc(NC(=O)N[C@@H]2N=C(c3ccccc3)c3ccccc3N(C)C2=O)c1` (stereo partly drawn) [Example 11, N-{(3R)-1,3-Dihydro-1-methyl-2-oxo-5-phenyl-1 H-1,4-benzodiazepin-3-yl}-N'-{[3-((1R,S)-tert-butyloxycarbonylamino-2-methoxycarbonyl)ethylphenyl]-urea}], the negative logarithm of the IC50 (pIC50) at CCK receptor (pancreas) was less than 5.52; at CCK receptor (brain), 6.41.
Take `COC(=O)CC(N)c1cccc(NC(=O)N[C@@H]2N=C(c3ccccc3)c3ccccc3N(C)C2=O)c1` (stereo partly drawn) [Example 12, N-{(3R)-1,3-Dihydro-1-methyl-2-oxo-5-phenyl-1H-1,4-benzodiazepin-3-yl}-N,- {[3-((1R,S)-amino-2-methoxycarbonyl)ethylphenyl]-urea}]: the pIC50 on CCK receptor (brain) is less than 5.52.
On to `CN1C(=O)[C@H](NC(=O)Nc2cccc(C(N)CC(=O)O)c2)N=C(c2ccccc2)c2ccccc21` (stereo partly drawn) [Example 13, N-{(3R)-1,3-Dihydro-1-methyl-2-oxo-5-phenyl-1H-1,4-benzodiazepin-3-yl}-N'-{[3-((1R,S)-amino-2-carboxy)ethylphenyl]-urea}], for which the negative logarithm of the IC50 (pIC50) at CCK receptor (pancreas) and at CCK receptor (brain) was less than 5.52 in each case.
On to `COC(=O)C1(NC(=O)OC(C)(C)C)CCc2cccc(NC(=O)N[C@@H]3N=C(c4ccccc4)c4ccccc4N(C)C3=O)c2C1` (stereo partly drawn) [Example 14, N-{(3R)-1,3-Dihydro-1-methyl-2-oxo-5-phenyl-1H-1,4-benzodiazepin-3-yl}-N'-{[8-(methyl-2(R,S)-tert-butyloxycarbonylamino-1,2,3,4-tetrahydro-2-naphthoate)]-urea}], for which the values for the negative-log IC50 (pIC50) at CCK receptor (pancreas) (setting [1]) and on CCK receptor (brain) were less than 5.52 and 6.19, respectively.
Turning to `COC(=O)C1(NC(=O)OC(C)(C)C)CCc2ccc(NC(=O)N[C@@H]3N=C(c4ccccc4)c4ccccc4N(C)C3=O)cc2C1` (stereo partly drawn) [Example 15, N-{(3R)-1,3-Dihydro-1-methyl-2-oxo-5-phenyl-1H-1,4-benzodiazepin-3-yl}-N'-{[7-(methyl-2-(R,S)-tert-butyloxycarbonylamino-1,2,3,4-tetrahydro-2-naphthoate)]-urea}], the pIC50 at CCK receptor (pancreas) (setting [1]) is less than 5.52; at CCK receptor (brain) it was 6.90.
On to `COC(=O)C1(N)CCc2ccc(NC(=O)N[C@@H]3N=C(c4ccccc4)c4ccccc4N(C)C3=O)cc2C1` (stereo partly drawn) [Example 16, N-{(3R)-1,3-Dihydro-1-methyl-2-oxo-5-phenyl-1H-1,4-benzodiazepin-3-yl}-N'-{[7-(methyl-2-(R,S)-amino-1,2,3,4-tetrahydro-2-naphthoate)]-urea}], for which the pIC50 at CCK receptor (pancreas) is less than 5.52; at CCK receptor (brain), 6.83.
As to `CN1C(=O)[C@H](NC(=O)Nc2ccc3c(c2)CC(N)(C(=O)O)CC3)N=C(c2ccccc2)c2ccccc21` (stereo partly drawn) [Example 17, N-{(3R)-1,3-Dihydro-1-methyl-2-oxo-5-phenyl-1H-1,4-benzodiazepin-3-yl}-N'-{[7-(2-(R,S)amino-1,2,3,4-tetrahydro-2-naphthoic acid)]-urea}], the negative logarithm of the IC50 (pIC50) at CCK receptor (pancreas) was less than 5.52; at CCK receptor (brain), 7.55.
At CCK receptor (brain), `COC(=O)C1(NC(=O)OC(C)(C)C)CCc2cc(NC(=O)N[C@@H]3N=C(c4ccccc4)c4ccccc4N(C)C3=O)ccc2C1` (stereo partly drawn) [Example 18, N-{(3R)-1,3-Dihydro-1-methyl-2-oxo-5-phenyl-1H-1,4-benzodiazepin-3-yl}-N'-{[6-(methyl-2-(R,S)-tert-butyloxycarbonylamino-1,2,3,4-tetrahydro-2-naphthoate)]-urea}] had a pIC50 of less than 5.52.
`COC(=O)C1(N)CCc2cc(NC(=O)N[C@@H]3N=C(c4ccccc4)c4ccccc4N(C)C3=O)ccc2C1` (stereo partly drawn) [Example 19]: the pIC50 on CCK receptor (pancreas) and on CCK receptor (brain) was less than 5.52 in each case.

(Values after US5378838A, “Benzodiazepine cholecystokinin antagonists” (Merck & Co., Inc., priority 1993, dated 1995).)
